Data set [1] has as its system L5/L6 spinal nerve ligation models. It is filed as in vivo, male SD rats. The procedure:
The evaluation of an analgesic effect on neuropathic pain was performed according to the method of Kim et al. using L5/L6 spinal nerve ligation models. That is, the left L5 and L6 sciatic nerves of male SD rats were tightly ligated with a silk thread under pentobarbital anesthesia, and thereafter, the evaluation was performed. As the assessment of pain behavior, a von Frey Test on the plantar surface of the animals was employed (Pain, vol. 50, pp. 355-363, 1992). That is, the plantar surface of the operated limb of the nerve ligation rat was stimulated by using von Frey Filament until a withdrawal response was observed, and the lowest amount of force (g) required to elicit withdrawal response was defined as a pain threshold. […] Each of a vehicle and diluted solutions obtained by diluting (±)-2-[(inden-7-yloxy)methyl]morpholine hydrochloride (indeloxazine hydrochloride), (+)-2-[(inden-7-yloxy)methyl]morpholine hydrochloride ((+)-indeloxazine hydrochloride), (−)-2-[(inden-7-yloxy)methyl]morpholine hydrochloride ((−)-indeloxazine hydrochloride), or duloxetine with a vehicle so as to give a dose of 30 mg/kg (calculated as a salt free form) was orally administered to rats in each group. The oral absorption of venlafaxine is poor, therefore, venlafaxine was intraperitoneally administered. As the vehicle, distilled water was used. A pain threshold was measured at 3 hours after administration in the case of duloxetine, and at 1 hour after administration in the case of the other compounds. An analgesic effect of each compound was examined based on recovery of the pain threshold in the each compound administration group compared with that in the vehicle administration group, as S. K. Joshi et al. described (Neuroscience, vol. 143, pp. 587-596, 2006).
The numerical values in the table indicate a mean value±standard error of the mean (SEM) of recovery ratios of thresholds of compounds when the pain threshold of the normal side paw is regarded as 100% and the pain threshold of the operated side paw is regarded as 0%.

The test system of another data set is CYP. Kind of data set: CYP inhibitory activity. It is filed as in vitro ADME. The settings on record: no method or isoform given.
[2] abbreviates: oral dose of 30 mg/kg (salt free form), 1 hour after administration, Student's t-test.
Where [3] appears, read: 30 mg/kg (calculated as a salt free form), p.o., measured 1 hour after administration, mean ± SEM, hydrochloride.

These results are taken from US20100087439A1, “NOVEL […]/OR THERAPEUTIC AGENT FOR NEUROPATHIC PAIN” (ASTELLAS PHARMA INC., priority 2007, published 2010).

Where two headings read alike, the source gives them in different places.

For the molecule `C1=Cc2cccc(OCC3CNCCO3)c2C1.Cl` (racemic) [(±)-Indeloxazine hydrochloride, (±)-2-[(inden-7-yloxy)methyl]morpholine hydrochloride], the “% Effect (recovery ratio of pain threshold; normal side paw = 100%, operated side paw = 0%)” value in data set [1] (30 mg/kg (calculated as a salt free form), p.o., measured 1 hour after administration, mean ± SEM) is on record as 94.3 ± 24.6 %. Also, the “recovery in the pain threshold compared with the vehicle group (in words)” value in data set [1] (setting [2]) is “significant recovery in the pain threshold”.

As to `COc1ccc(C(CN(C)C)C2(O)CCCCC2)cc1` (racemic) [Venlafaxine, (±)-1-[2-(dimethylamino)-1-(4-methoxyphenyl)ethyl]cyclohexanol, reference compound], the “recovery in the pain threshold compared with the vehicle group (in words)” value in data set [1] (30 mg/kg (salt free form), intraperitoneal, 1 hour after administration, Student's t-test) is given as “a significant recovery in the threshold was not observed”.

With `C1=Cc2cccc(OCC3CNCCO3)c2C1` (single isomer, unassigned; (+)) [(+)-2-[(inden-7-yloxy)methyl]morpholine], the “CYP inhibitory activity (in words)” value in the data set on CYP is listed as “extremely weak CYP inhibitory activity”.

For `C1=Cc2cccc(OCC3CNCCO3)c2C1.Cl` (single isomer, unassigned; (+)) [(+)-Indeloxazine hydrochloride, (+)-2-[(inden-7-yloxy)methyl]morpholine hydrochloride], the “% Effect (recovery ratio of pain threshold; normal side paw = 100%, operated side paw = 0%)” value in data set [1] (setting [3]) is given as 94.5 ± 17.0 %. Moreover, the “recovery in the pain threshold compared with the vehicle group (in words)” value in data set [1] (setting [2]) is reported as “significant recovery in the pain threshold”.

For the molecule `C1=Cc2cccc(OCC3CNCCO3)c2C1.Cl` (single isomer, unassigned; (-)) [(−)-Indeloxazine hydrochloride, (−)-2-[(inden-7-yloxy)methyl]morpholine hydrochloride], the “% Effect (recovery ratio of pain threshold; normal side paw = 100%, operated side paw = 0%)” value in data set [1] (setting [3]) is 115.7 ± 22.0 %. In data set [1] (setting [2]), the “recovery in the pain threshold compared with the vehicle group (in words)” value was “significant recovery in the pain threshold”.

Turning to `CNCC[C@H](Oc1cccc2ccccc12)c1cccs1` [Duloxetine, (S)—N-methyl-γ-(1-naphthalenyloxy)-2-thiophenepropanamine, reference compound], in data set [1] (rat, in vivo), the “% Effect (recovery ratio of pain threshold; normal side paw = 100%, operated side paw = 0%)” value is on record as 49.3 ± 25.3% and the “recovery in the pain threshold compared with the vehicle group (in words)” value is recorded as “a significant recovery in the threshold was not observed”.
